# Assay results published in ChEMBL document CHEMBL5506059, “Cyanomethylquinolones as a New Class of Potential Multitargeting Broad-Spectrum Antibacterial Agents” (J Med Chem, 2024).
# Active and inactive are the calls of the source. The rule behind the calls is not given here.
# Key:
# Cell membrane [1] = assay: Induction of cell membrane damage in Pseudomonas aeruginosa assessed as increase in nucleic acid leakage at 0 to 2 ug/ml incubated for 12 hrs by optical density based microplate reader analysis; format: cell membranes; settings: dose 0-2 µg/ml
# Staphylococcus aureus [2] = assay: Antibacterial activity against methicillin resistant Staphylococcus aureus infected in female ICR mouse assessed as log reduction in bacterial load at 20 mg/kg pre-infected with bacteria for 24 hrs followed by compound administration on wound site every 6 hrs for 2 times and measured 36 hrs post infection; format: functional; settings: time 12 hrs
# Staphylococcus aureus [3] = assay: Potency index, ratio of clinafloxacin MIC to test compound MIC for antibacterial activity against Staphylococcus aureus clinical isolate assessed as inhibition of bacterial growth incubated for 24 hrs; format: functional
# Pseudomonas aeruginosa [4] = assay: Antibacterial activity against Pseudomonas aeruginosa ATCC 27853 assessed as inhibition of bacterial growth incubated for 24 hrs; format: functional
# Erythrocyte = assay: Hemolytic activity in human Red blood cells assessed as concentration required for 5% hemolysis measured after 1.5 hrs by absorbance based assay; format: toxicity, cell-based
# Staphylococcus aureus [5] = assay: Antibacterial activity against Staphylococcus aureus CMCC(B)26001 assessed as inhibition of bacterial growth incubated for 24 hrs; format: functional
# Cell membrane [6] = assay: Induction of cell membrane permeability in methicillin-resistant Staphylococcus aureus assessed as increase in fluorescence intensity at 1 to 2 ug/ml incubated for 6 hrs by PI staining based fluorescence analysis; format: cell membranes; settings: dose 1-2 µg/ml
# Staphylococcus aureus [7] = assay: Induction of morphological changes in methicillin resistant Staphylococcus aureus assessed as appearance of blurred intracellular boundaries with disintegration of bacterial structure at 2 ug/ml incubated for 3 hrs by SEM analysis; format: functional, organism-based; settings: dose 2.0 µg/ml
# L02 = assay: Cytotoxicity against human L02 cells assessed as reduction in cell viability at 0.78 to 25 ug/ml measured after 24 hrs by MTT assay; format: toxicity, cell-based; settings: l02, 24 h, dose 0.78-25 µg/ml
# Staphylococcus aureus [8] = assay: Antibacterial activity against Staphylococcus aureus clinical isolate assessed as inhibition of bacterial growth incubated for 24 hrs; format: functional
# Streptococcus pneumoniae = assay: Antibacterial activity against Streptococcus pneumoniae ATCC 6305 assessed as inhibition of bacterial growth incubated for 24 hrs; format: functional
# Staphylococcus aureus [9] = assay: Induction of morphological changes in methicillin resistant Staphylococcus aureus assessed as appearance of wrinkled bacterial surface at 2 ug/ml incubated for 3 hrs by SEM analysis; format: functional, organism-based; settings: dose 2.0 µg/ml
# Enterococcus faecalis [10] = assay: Potency index, ratio of norfloxacin MIC to test compound MIC for antibacterial activity against vancomycin-resistant Enterococcus faecalis clinical isolate p1-2007225053 assessed as inhibition of bacterial growth incubated for 24 hrs; format: functional
# Pseudomonas aeruginosa [11] = assay: Induction of morphological changes in Pseudomonas aeruginosa assessed as appearance of concaved bacterial surface at 2 ug/ml incubated for 3 hrs by SEM analysis; format: functional, organism-based; settings: dose 2.0 µg/ml
# Pseudomonas aeruginosa [12] = assay: Induction of intracellular ROS generation in Pseudomonas aeruginosa assessed as increase in fluorescence intensity at 2 ug/ml incubated for 6 hrs in presence of N-acetyl-L-cysteine by DCFH-DA dye based fluorescence analysis; format: functional, organism-based; settings: dose 2.0 µg/ml
# Cell membrane [13] = assay: Induction of cell membrane damage in methicillin-resistant Staphylococcus aureus assessed as increase in nucleic acid leakage at 0 to 2 ug/ml incubated for 12 hrs by optical density based microplate reader analysis; format: cell membranes; settings: dose 0-2 µg/ml
# Staphylococcus aureus [14] = assay: Potency index, ratio of norfloxacin MIC to test compound MIC for antibacterial activity against Staphylococcus aureus clinical isolate assessed as inhibition of bacterial growth incubated for 24 hrs; format: functional
# Pseudomonas aeruginosa [15] = assay: Induction of morphological changes in Pseudomonas aeruginosa assessed as appearance of wrinkled bacterial surface at 2 ug/ml incubated for 3 hrs by SEM analysis; format: functional, organism-based; settings: dose 2.0 µg/ml
# Staphylococcus aureus [16] = assay: Antibacterial activity against Staphylococcus aureus ATCC 6538 assessed as inhibition of bacterial growth incubated for 24 hrs; format: functional
# [17] = Hemolytic activity in human Red blood cells at 256 ug/ml measured after 1.5 hrs by absorbance based assay relative to control; format: toxicity, cell-based, Erythrocyte; settings: red blood cells (erythrocytes), at 256 µg/mL, read-out: Activity
# Streptococcus pyogenes [18] = assay: Potency index, ratio of norfloxacin MIC to test compound MIC for antibacterial activity against Streptococcus pyogenes ATCC 19615 assessed as inhibition of bacterial growth incubated for 24 hrs; format: functional
# Pseudomonas aeruginosa [19] = assay: Resistance development in Pseudomonas aeruginosa assessed as increase in MIC measured after 20 days; format: functional, organism-based; settings: time 20.0 day
# Staphylococcus aureus [20] = assay: Resistance development in methicillin resistant Staphylococcus aureus assessed as increase in MIC measured after 20 days; format: functional, organism-based; settings: time 20.0 day
# Staphylococcus aureus [21] = assay: Antibacterial activity against Staphylococcus aureus ATCC 29213 assessed as inhibition of bacterial growth incubated for 24 hrs; format: functional
# Pseudomonas aeruginosa [22] = assay: Potency index, ratio of norfloxacin MIC to test compound MIC for antibacterial activity against Pseudomonas aeruginosa clinical isolate assessed as inhibition of bacterial growth incubated for 24 hrs; format: functional
# Acinetobacter baumannii = assay: Antibacterial activity against Acinetobacter baumannii clinical isolate assessed as inhibition of bacterial growth incubated for 24 hrs; format: functional
# Enterococcus faecalis [23] = assay: Antibacterial activity against vancomycin-resistant Enterococcus faecalis clinical isolate p1-2007226001 assessed as inhibition of bacterial growth incubated for 24 hrs; format: functional
# Cell membrane [24] = assay: Induction of cell membrane depolarization in methicillin-resistant Staphylococcus aureus assessed as increase in fluorescence intensity at 1 ug/ml measured for 30 mins by DiSC35 dye based fluorescence analysis; format: cell membranes; settings: dose 1.0 µg/ml
# Staphylococcus aureus [25] = assay: Induction of morphological changes in methicillin resistant Staphylococcus aureus assessed as appearance of concaved bacterial surface at 2 ug/ml incubated for 3 hrs by SEM analysis; format: functional, organism-based; settings: dose 2.0 µg/ml
# [26] = Cytotoxicity against HUVEC cells assessed as cell viability at 25 ug/ml measured after 24 hrs by MTT assay relative to control; format: toxicity, cell-based; settings: human, at 25 µg/mL, read-out: Activity
# Staphylococcus aureus [27] = assay: Antibacterial activity against ciprofloxacin-treated Staphylococcus aureus ATCC 6538 assessed as inhibition of bacterial growth measured after 24 hrs; format: functional
# Pseudomonas aeruginosa [28] = assay: Antibacterial activity against Pseudomonas aeruginosa clinical isolate assessed as inhibition of bacterial growth incubated for 24 hrs; format: functional
# [29] = tested on: Staphylococcus epidermidis; assay: Antibacterial activity against Staphylococcus epidermidis ATCC 12228 assessed as inhibition of bacterial growth incubated for 24 hrs; format: functional
# Enterococcus faecalis [30] = assay: Antibacterial activity against vancomycin-resistant Enterococcus faecalis clinical isolate p1-2007225053 assessed as inhibition of bacterial growth incubated for 24 hrs; format: functional
# Staphylococcus aureus [31] = assay: Antibacterial activity against methicillin resistant Staphylococcus aureus clinical isolate assessed as inhibition of bacterial growth incubated for 24 hrs; format: functional
# Pseudomonas aeruginosa [32] = assay: Induction of morphological changes in Pseudomonas aeruginosa assessed as appearance of blurred intracellular boundaries with disintegration of bacterial structure at 2 ug/ml incubated for 3 hrs by SEM analysis; format: functional, organism-based; settings: dose 2.0 µg/ml
# Streptococcus pyogenes [33] = assay: Potency index, ratio of ciprofloxacin MIC to test compound MIC for antibacterial activity against Streptococcus pyogenes ATCC 19615 assessed as inhibition of bacterial growth incubated for 24 hrs; format: functional
# Pseudomonas aeruginosa [34] = assay: Induction of intracellular ROS generation in Pseudomonas aeruginosa assessed as increase in fluorescence intensity at 2 ug/ml incubated for 6 hrs by DCFH-DA dye based fluorescence analysis; format: functional, organism-based; settings: dose 2.0 µg/ml
# Klebsiella pneumoniae = assay: Antibacterial activity against Klebsiella pneumoniae clinical isolate assessed as inhibition of bacterial growth incubated for 24 hrs; format: functional
# Streptococcus pyogenes [35] = assay: Antibacterial activity against Streptococcus pyogenes ATCC 19615 assessed as inhibition of bacterial growth incubated for 24 hrs; format: functional
smiles,measurement,setting,value
N#CCc1cc2c(cc1F)c(=O)c(C(=O)O)cn2C1CC1,Activity,Cell membrane [1],Active
same,log(activity),Staphylococcus aureus [2],~4
same,Ratio,Staphylococcus aureus [3],2
same,MIC,Pseudomonas aeruginosa [4],0.5 µg/mL
same,HC5,Erythrocyte,> 10000 µg/mL
same,MIC,Staphylococcus aureus [5],0.125 µg/mL
same,Activity,Cell membrane [6],Active
same,Activity,Staphylococcus aureus [7],Active
same,Activity,L02,Non-Toxic
same,MIC,Staphylococcus aureus [8],0.25 µg/mL
same,MIC,Streptococcus pneumoniae,0.5 µg/mL
same,Activity,Staphylococcus aureus [9],Active
same,Ratio,Enterococcus faecalis [10],8
same,Activity,Pseudomonas aeruginosa [11],Active
same,Activity,Pseudomonas aeruginosa [12],inactive
same,Activity,Cell membrane [13],Active
same,Ratio,Staphylococcus aureus [14],32
same,Activity,Pseudomonas aeruginosa [15],Active
same,MIC,Staphylococcus aureus [16],0.5 µg/mL
same,"hemolysis at 1.5 h, 256 ug/ml",[17],< 1%
same,Ratio,Streptococcus pyogenes [18],128
same,Activity,Pseudomonas aeruginosa [19],inactive
same,Activity,Staphylococcus aureus [20],inactive
same,MIC,Staphylococcus aureus [21],1 µg/mL
same,Ratio,Pseudomonas aeruginosa [22],32
same,MIC,Acinetobacter baumannii,0.25 µg/mL
same,MIC,Enterococcus faecalis [23],4 µg/mL
same,Activity,Cell membrane [24],Active
same,Activity,Staphylococcus aureus [25],Active
same,"viability at 24 h, 25 ug/ml",[26],> 90%
same,MIC,Staphylococcus aureus [27],8 µg/mL
same,MIC,Pseudomonas aeruginosa [28],0.25 µg/mL
same,MIC,[29],0.5 µg/mL
same,MIC,Enterococcus faecalis [30],0.125 µg/mL
same,MIC,Staphylococcus aureus [31],0.5 µg/mL
same,Activity,Pseudomonas aeruginosa [32],Active
same,Ratio,Streptococcus pyogenes [33],64
same,Activity,Pseudomonas aeruginosa [34],Active
same,MIC,Klebsiella pneumoniae,1 µg/mL
same,MIC,Streptococcus pyogenes [35],0.25 µg/mL
